Test results published in patent US6903104B2, “Indol-3-YL-2-oxoacetamide compounds and methods of use thereof” (National Health Research Institutes, priority 2001, dated 2005).

How the values were obtained:
[1] = test system: uterus MES-SA cancer cells; test: In vitro cytotoxicity MTS assay, uterus MES-SA; format: cell-based, human; conditions: 72 hours
Description: (§1) A panel of human cancer cells, gastric NUGC3 and HR, nasopharyngeal HONE1, hepatocellular HEP G2 and HA-22T, colorectal DLD1, lung A549, prostate PC3, breast MCF7 and its adriamycin-resistant MCF7/ADR subline, uterus MES-SA and its adriamycin-resistant MES-SA/Dx5 subline, is purchased from Food Industry Research and Development Institute, Hsinchu, Taiwan R.O.C. or American Type Culture Collection, Manassas, Va. U.S.A., are used in in vitro cytotoxicity assays. The human cells are seeded at a cell density of 3000 or 4500 cells/100 μl/well in 96-well flat-bottom plates and incubated for 24 hours at 37° C. in a 5% CO2 incubator. The testing compounds are dissolved in dimethyl sulfoxide (DMSO) and further diluted into the culture medium for treatments of human cancer cells in vitro. The drug-containing media has a final DMSO concentration of ≦0.3%. The compounds of this invention are prepared in culture media for testing at a range of concentrations from 10, 1, 0.1, 0.01 to 0.001 μM. Each compound solution is (200 μl/well in duplicate) in the cell plates and is treated for 72 hours at 37° C., 5% CO2 in an incubator. Actinomycin D at 5 μM and 0.3% DMSO are used as the positive and vehicle controls, respectively. A colorimetric assay using 3-(4,5-dimethylthiazol-2-yl)-5-(3-carboxymethoxyphenyl)-2-(4-sulfophenyl)-2H-tetrazolium (MTS) and phenazine methosulfate (PMS) is used to determine the potency of the compounds. This assay measures cell viability based on the cellular activity in conversion of a tetrazolium salt into a colored soluble formazan product. The optical density (OD) values are measured at 490 nm with a 1420 multilabel counter VICTOR® from Wallac, Turku, Finland. All of the measured values are subtracted with that of the blank control wells without cells before further calculations. The efficacy data are expressed as a percentage normalized to the vehicle controls as calculated in the following formulae. Inhibitory potency (% of vehicle control)=[(OD490compound−OD490blank)/(OD490vehicle−OD490blank)]×100%. The concentration (IC50) of a test compound that inhibits 50% of the cellular activity is determined.

[2] = test system: murine leukemic P388 cells; test: In vivo anticancer activity, murine leukemic P388 model; design: species or system DBA/2J mice; conditions: P388-inoculated mice; for increase of life span: P.O., daily, 4×; for activity in the increase of life span (dose-response): oral
Description: The in vivo anticancer activities of the compounds are evaluated by the following murine leukemic P388 model. Inbred female DBA/2J mice of 4-5 week-old were purchased from the Charles River Laboratories Inc., Wilmington, Mass., USA and the National Laboratory Animals Breeding and Research Center, Taipei, Taiwan, ROC. Murine leukemic P388 cells are purchased from the Japanese Collection of Research Bioresources, Japan. P388 cells are cultured and propagated in RPMI1640 medium supplemented with 50 μM 2-mercaptoethanol and 10% fetal bovine serum. Mice at the age of 6 weeks were grouped as the treatment, negative control and positive control groups at 7 to 8 mice per group. All mice are intravenously inoculated with the P388 cells at one million per mouse one day before the treatments initiated. Compounds of this invention are dissolved in dimethyl sulfoxide (DMSO) and then diluted in 0.5% carboxymethyl cellulose with the final concentration of DMSO less than 0.5%. Different treatment groups are orally given (P.O.), respectively, with compounds of different doses for a pharmacological dose-response relationship. Mice of the negative control group are treated with the dosing vehicle, 0.5% carboxymethyl cellulose. Doxorubicin of the maximal tolerated dose, 10 mg/kg, is given intravenously as an experimental positive control. The cancer cell-inoculated animals are monitored twice daily. The time on which 50% of the P388-inoculated mice is still surviving is defined as the medium survival time and is used to calculate the percentage (normalized to the medium survival time of the control group) of increased in life span after treatment, which is then served as the index of treatment response.

[3] = test system: breast MCF7 cancer cells; test: In vitro cytotoxicity MTS assay, breast MCF7; format: cell-based, human; conditions: 72 hours
Description: as §1

[4] = test system: human colorectal SW480 tumor xenograft; test: Antitumor activity, human colorectal SW480 tumor xenograft; format: in vivo, athymic nude mice
Description: Human colorectal SW480 cancer cells were subcutaneously implanted into the young male athymic nude mice at 1 million cells per mouse. The treatment schedule of 200 mg/kg daily oral administration for 6 weeks was initiated at the time which the tumor size reached 50˜100 mm^3. Compound was orally gavaged to the nude mice subcutaneously bearing human colorectal SW480 tumor xenograft based on the treatment schedule. The tumor size and body weight of the animals were monitored twice a week through out the 70-day period of observation. The tumor growth was suppressed by the daily oral treatments of compound 56. Tumor sizes of the treated and vehicle control groups were compared at the end of 70-day observation. The size of tumor mass subcutaneously implanted in the nude mice for the treated group was reduced to 26% compared to that of the vehicle control group at the end of the observation period.

[5] = test system: gastric HR cancer cells; test: In vitro cytotoxicity MTS assay, gastric HR; format: cell-based, human; conditions: 72 hours
Description: as §1

[6] = test system: prostate PC3 cancer cells; test: In vitro cytotoxicity MTS assay, prostate PC3; format: cell-based, human; conditions: 72 hours
Description: as §1

[7] = test system: nasopharyngeal HONE1 cancer cells; test: In vitro cytotoxicity MTS assay, nasopharyngeal HONE1; format: cell-based, human; conditions: 72 hours
Description: as §1

| SMILES | IC50 [1] [nM] | increase of life span ([2]; 25 mg/kg) [%] | increase of life span ([2]; 50 mg/kg) [%] | increase of life span ([2]; 100 mg/kg) [%] | increase of life span ([2]; 200 mg/kg) [%] | activity in the increase of life span (dose-response) [2] | IC50 [3] [nM] | size of tumor mass compared to that of the vehicle control group ([4]; 200 mg/kg daily oral for 6 weeks, end of 70-day observation) [%] | tumor growth ([4]; 200 mg/kg daily oral treatments) | toxicity as noted by loss of the body weight ([4]; oral multiple dosing, 200 mg/kg daily for 6 weeks) | IC50 [5] [nM] | IC50 [6] [nM] | IC50 [7] [nM] |
| --- | --- | --- | --- | --- | --- | --- | --- | --- | --- | --- | --- | --- | --- |
| Cc1cc(Cn2cc(C(=O)C(=O)Nc3cc(C)ns3)c3ccccc32)on1 [Compound 56] | 293 | 26 ± 27 | 57 ± 20 | 63 ± 17 | 100 ± 21 | dose-dependent activity | 36 | 26 | suppressed | no obvious toxicity | 8 | 628 | 4 |
| Cc1cc(NC(=O)C(=O)c2cn(Cc3ccc(C#N)cc3)c3ccccc23)sn1 [Compound 25] | 373 | 14 ± 1 | 27 ± 3 | 20 ± 8 | 46 ± 24 | dose-dependent activity | 469 |  |  |  | 340 | 689 | 207 |
